Consider 27 compounds from US20080188481A1 (priority 2002, published 2008).

The assay relates to HIV-1 single-round infectious reporter virus. Nature of the assay: Single-round infectious HIV-1 luciferase reporter virus infection of HeLa CD4 cells (antiviral EC50). The class given is cell-based. Particulars: Human immunodeficiency virus 1, HeLa, 72 h, read-out: EC50 Group from Table 1. The method, boiled down:
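HeLa CD4 cells infected with env-pseudotyped, luciferase-reporter single-round HIV-1 (MOI ~0.01) in presence of compound (final ≤10 μM), harvested 72 h at 37 °C. Luciferase luminescence expressed as percent inhibition versus no-compound control; EC50 from 10-concentration four-parameter logistic fit.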
On to `COc1cnc(-n2ccnn2)c2[nH]cc(C(=O)C(=O)N3CCC(=C(c4ccccc4)c4nnc(C5CC5)o4)CC3)c12` [Example 76, 1-[4-(1-Phenyl-1-(5-cyclopropyl-1,3,4-oxadiazol-2-yl)-methylene)-piperidin-1-yl]-2-[4-methoxy-7-(1,2,3-triazol-1-yl)-6-azaindol-3-yl]-ethane-1,2-dione], for which the EC50 was less than 1000 nM.
In the case of `COc1ncc(OC)c2c(C(=O)C(=O)N3CCC(=C(C#CCO)c4ccccc4)CC3)c[nH]c12` [Example 116, 1-[4-(1-Phenyl-1-(2-hydroxymethylethyn-1-yl)-methylene)-piperidin-1-yl]-2-(4,7-dimethoxy-6-azaindol-3-yl)-ethane-1,2-dione] it was less than 1000 nM; in that of `COc1cnc(-c2cnccn2)c2[nH]cc(C(=O)C(=O)N3CCC(=C(c4ccccc4)c4cccc(F)c4)CC3)c12` [Example 94], less than 1000 nM; in that of `O=C(C(=O)N1CCC(=C(c2ccccc2)c2cc(F)cc(F)c2)CC1)c1c[nH]c2c(Cl)ccnc12` [Example 109, 1-(7-Chloro-1H-pyrrolo[3,2-b]pyridin-3-yl)-2-{4-[(3,5-difluoro-phenyl)-phenyl-methylene]-piperidin-1-yl}-ethane-1,2-dione], less than 1000 nM.
The same measure for `COc1ncc(OC)c2c(C(=O)C(=O)N3CCC(=C(c4ccccc4)c4cccc(SC)c4)CC3)c[nH]c12` [Example 68]: less than 1000 nM; for `O=C(C(=O)N1CCC(=C(Br)c2ccccc2)CC1)c1c[nH]c2c(Cl)ccnc12` [Example 107, 1-[4-(Bromo-phenyl-methylene)-piperidin-1-yl]-2-(7-chloro-1H-pyrrolo[3,2-b]pyridin-3-yl)-ethane-1,2-dione]: less than 1000 nM; for `COc1ncc(OC)c2c(C(=O)C(=O)N3CCC(=C(c4ccccc4)c4cccc([N+](=O)[O-])c4)CC3)c[nH]c12` [Example 66]: less than 1000 nM.
In the case of `COc1cnc(Cl)c2[nH]cc(C(=O)C(=O)N3CCC(=C(F)c4ccccc4)CC3)c12` [Example 21] it was less than 1000 nM; in that of `N#CC(=C1CCN(C(=O)C(=O)c2c[nH]c3c(-n4cncn4)ncc(F)c23)CC1)c1ccccc1` [Example 110, {1-[2-(4-Fluoro-7-[1,2,4]triazol-1-yl-1H-pyrrolo[2,3-c]pyridin-3-yl)-2-oxo-acetyl]-piperidin-4-ylidene}-phenyl-acetonitrile], less than 1000 nM.
As for `N#CC(=C1CCN(C(=O)C(=O)c2c[nH]c3c(-c4ncco4)ccnc23)CC1)c1ccccc1` [Example 103, {1-[2-(7-Oxazol-2-yl-1H-pyrrolo[3,2-b]pyridin-3-yl)-2-oxo-acetyl]-piperidin-4-ylidene}-phenyl-acetonitrile], the EC50 was less than 1000 nM.
In the case of `COc1cccc(C(=C2CCN(C(=O)C(=O)c3c[nH]c4c(OC)ncc(OC)c34)CC2)c2ccccc2)c1` [Example 58] it was less than 1000 nM.
In the case of `COc1cnc(-n2cnc(C)n2)c2[nH]cc(C(=O)C(=O)N3CCC(=C(c4ccccc4)c4nnc(C5CCC5)o4)CC3)c12` [Example 133, 1-[4-(1-Phenyl-1-(5-cyclobutyl-1,3,4-oxadiazol-2-yl)-methylene)-piperidin-1-yl]-2-[4-methoxy-7-(3-methyl-1,2,4-triazol-1-yl)-6-azaindol-3-yl]-ethane-1,2-dione] it was less than 1000 nM; in that of `O=C(C(=O)N1CCC(=Cc2ccccc2)CC1)c1c[nH]c2c(-c3ncon3)ccc(F)c12` [Example 6], less than 1000 nM.
The same measure for `COc1cnc(-n2cnc(C)n2)c2[nH]cc(C(=O)C(=O)N3CCC(=C(c4ccccc4)c4cncc(CO)c4)CC3)c12` [Example 120, 1-[4-(1-Phenyl-1-(5-hydroxymethylpyridin-3-yl)-methylene)-piperidin-1-yl]-2-[4-methoxy-7-(3-methyl-1,2,4-triazol-1-yl)-6-azaindol-3-yl]-ethane-1,2-dione]: less than 1000 nM; for `CCc1nnc(C(=C2CCN(C(=O)C(=O)c3c[nH]c4c(-n5ccnn5)ncc(OC)c34)CC2)c2ccccc2)o1` [Example 74, 1-[4-(1-Phenyl-1-(5-ethyl-1,3,4-oxadiazol-2-yl)-methylene)-piperidin-1-yl]-2-[4-methoxy-7-(1,2,3-triazol-1-yl)-6-azaindol-3-yl]-ethane-1,2-dione]: less than 1000 nM; for `COc1cnc(-n2cnc(C)n2)c2[nH]cc(C(=O)C(=O)N3CCC(=C(c4ccccc4)c4cnn(C)c4)CC3)c12` [Example 141, 1-[4-(1-Phenyl-1-(1-methylpyrazol-4-yl)-methylene)-piperidin-1-yl]-2-(4-methoxy-7-(3-methyl-1,2,4-triazol-1-yl)-6-azaindol-3-yl)-ethane-1,2-dione]: less than 1000 nM.
Consider `COc1ncc(OC)c2c(C(=O)C(=O)N3CCC(=C(c4ccccc4)c4cnccn4)CC3)c[nH]c12` [Example 56], for which the EC50 was less than 1000 nM.
In the case of `COc1ncc(OC)c2c(C(=O)C(=O)N3CCC(=C(c4ccccc4)c4ccccn4)CC3)c[nH]c12` [Example 50, 1-[4-(1-Phenyl-1-(pyridin-2-yl)-methylene)-piperidin-1-yl]-2-(4,7-dimethoxy-6-azaindol-3-yl)-ethane-1,2-dione] it was less than 1000 nM.
For `N#CC(=C1CCN(C(=O)C(=O)c2c[nH]c3c(-c4cncc(N)n4)ccnc23)CC1)c1ccccc1` [Example 106, (1-{2-[7-(6-Amino-pyrazin-2-yl)-1H-pyrrolo[3,2-b]pyridin-3-yl]-2-oxo-acetyl}-piperidin-4-ylidene)-phenyl-acetonitrile], the EC50 is less than 1000 nM.
Consider `CC1CN(C(=O)C(=O)c2c[nH]c3ccccc23)CC/C1=C\c1ccccc1` (stereo not drawn) [Example 14], for which the EC50 fell in the range of 1000 to 5000 nM.
The same measure for `Cc1nnc(C(=C2CCN(C(=O)C(=O)c3c[nH]c4c(Cl)ccnc34)CC2)c2ccccc2)o1` [Example 108, 1-(7-Chloro-1H-pyrrolo[3,2-b]pyridin-3-yl)-2-{4-[(5-methyl-[1,3,4]oxadiazol-2-yl)-phenyl-methylene]-piperidin-1-yl}-ethane-1,2-dione]: less than 1000 nM; for `COc1ncc(OC)c2c(C(=O)C(=O)N3CCC(=C(C(N)=O)c4ccccc4)CC3)c[nH]c12` [Example 47]: less than 1000 nM; for `COc1ncc(OC)c2c(C(=O)C(=O)N3CCC(=Cc4ccccc4)CC3)c[nH]c12` [Example 13]: greater than 5000 nM.
The same measure for `COc1cnc(-n2cc(C)nn2)c2[nH]cc(C(=O)C(=O)N3CCC(=C(c4ccccc4)c4cc(C)n[nH]4)CC3)c12` [Example 137, 1-[4-(1-Phenyl-1-(3-methylpyrazol-5-yl)-methylene)-piperidin-1-yl]-2-(4-methoxy-7-(4-methyl-1,2,3-triazol-1-yl)-6-azaindol-3-yl)-ethane-1,2-dione]: less than 1000 nM; for `COc1ncc(OC)c2c(C(=O)C(=O)N3CCC(=C(C#N)c4nc5ccccc5[nH]4)CC3)c[nH]c12` [Example 23]: less than 1000 nM; for `COc1ncc(OC)c2c(C(=O)C(=O)N3CCC(=C(c4ccccc4)c4ncco4)CC3)c[nH]c12` [Example 61]: less than 1000 nM.
The same measure for `CCOC(=O)c1cc(C(=C2CCN(C(=O)C(=O)c3c[nH]c4c(-n5cnc(C)n5)ncc(OC)c34)CC2)c2ccccc2)n[nH]1` [Example 87]: less than 1000 nM.
